2 compounds from ChEMBL document CHEMBL5260859, “Discovery and structure-activity relationship study of 2-piperazinyl-benzothiazole derivatives as potent and selective PPARδ agonists” (Bioorg Med Chem, 2023) can be followed below.

The target in test [1] is T1, Peroxisome proliferator-activated receptor delta (Homo sapiens, UniProt Q03181).
T1 sequence (Q03181 whole entry): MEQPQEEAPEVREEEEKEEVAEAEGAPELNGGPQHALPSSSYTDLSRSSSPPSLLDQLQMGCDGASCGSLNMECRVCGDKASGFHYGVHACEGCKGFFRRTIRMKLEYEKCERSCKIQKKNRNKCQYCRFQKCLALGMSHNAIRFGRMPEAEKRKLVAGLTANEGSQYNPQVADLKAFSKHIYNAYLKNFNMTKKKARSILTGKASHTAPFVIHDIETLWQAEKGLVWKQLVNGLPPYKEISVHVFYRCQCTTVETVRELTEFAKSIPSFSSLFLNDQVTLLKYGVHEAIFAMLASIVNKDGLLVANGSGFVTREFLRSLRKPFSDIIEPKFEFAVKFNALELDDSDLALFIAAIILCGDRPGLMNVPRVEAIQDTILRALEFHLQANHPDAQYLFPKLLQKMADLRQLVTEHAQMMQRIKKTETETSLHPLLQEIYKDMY
The experiment in a line: Agonist activity at Gal4-fused human PPAR-delta ligand binding domain expressed in CHO-K1 cells assessed as receptor transactivation incubated for 24 to 48 hrs by luciferase reporter gene assay. In kind it is cell-based. Background: Reporter assays use an easily measured gene product as a stand-in for the process of interest.

The target of test [2] is T2, Peroxisome proliferator-activated receptor alpha (Homo sapiens) (UniProt Q07869).
T2 sequence (whole entry): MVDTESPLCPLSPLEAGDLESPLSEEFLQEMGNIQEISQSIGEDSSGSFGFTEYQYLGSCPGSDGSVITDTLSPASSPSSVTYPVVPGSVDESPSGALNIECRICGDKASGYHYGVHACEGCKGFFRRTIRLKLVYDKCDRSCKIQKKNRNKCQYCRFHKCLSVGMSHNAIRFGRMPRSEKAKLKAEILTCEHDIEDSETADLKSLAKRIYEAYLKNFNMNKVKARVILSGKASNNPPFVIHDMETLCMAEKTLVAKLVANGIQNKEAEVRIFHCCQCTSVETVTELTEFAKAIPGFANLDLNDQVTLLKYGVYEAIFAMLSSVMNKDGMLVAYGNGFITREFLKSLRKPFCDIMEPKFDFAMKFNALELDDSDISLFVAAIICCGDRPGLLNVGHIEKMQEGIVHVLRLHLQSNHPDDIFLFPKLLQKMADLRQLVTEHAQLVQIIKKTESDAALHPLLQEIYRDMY
The experiment in a line: Agonist activity at Gal4-fused human PPAR-alpha ligand binding domain expressed in CHO-K1 cells assessed as receptor transactivation incubated for 24 to 48 hrs by luciferase reporter gene assay relative to control. The conditions noted are these: time lower 24.0 hrs, time upper […]. In kind it is cell-based.

For a further test, the species on record is Homo sapiens. The experiment in a line: Selectivity ratio of EC50 for agonist activity at Gal4-fused human PPAR-alpha ligand binding domain expressed in CHO-K1 cells to EC50 for agonist activity at Gal4-fused human PPAR-delta ligand binding domain expressed in CHO-K1 cells. In kind it is cell-based.
Test [3] deals with T3, Peroxisome proliferator-activated receptor gamma (Homo sapiens, UniProt P37231).
T3 sequence (P37231 whole entry): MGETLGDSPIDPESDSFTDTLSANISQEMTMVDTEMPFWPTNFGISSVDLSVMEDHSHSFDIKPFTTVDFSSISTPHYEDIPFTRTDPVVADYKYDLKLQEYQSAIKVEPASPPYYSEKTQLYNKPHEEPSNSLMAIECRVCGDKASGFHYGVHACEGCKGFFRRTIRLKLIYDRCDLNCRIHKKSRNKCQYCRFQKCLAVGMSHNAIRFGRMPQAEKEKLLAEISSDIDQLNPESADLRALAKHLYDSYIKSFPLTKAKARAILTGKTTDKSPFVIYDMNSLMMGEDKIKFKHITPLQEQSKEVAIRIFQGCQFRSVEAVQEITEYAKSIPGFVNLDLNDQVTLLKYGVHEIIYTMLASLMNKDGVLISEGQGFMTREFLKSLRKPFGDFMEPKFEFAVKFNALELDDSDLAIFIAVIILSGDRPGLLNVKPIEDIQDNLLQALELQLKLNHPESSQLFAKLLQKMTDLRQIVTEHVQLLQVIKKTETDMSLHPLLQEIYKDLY
It counts as cell-based, CHO-K1.

For test [4], the target named is T4, Peroxisome proliferator-activated receptor alpha (Mus musculus, UniProt P23204).
T4 sequence (P23204 whole entry): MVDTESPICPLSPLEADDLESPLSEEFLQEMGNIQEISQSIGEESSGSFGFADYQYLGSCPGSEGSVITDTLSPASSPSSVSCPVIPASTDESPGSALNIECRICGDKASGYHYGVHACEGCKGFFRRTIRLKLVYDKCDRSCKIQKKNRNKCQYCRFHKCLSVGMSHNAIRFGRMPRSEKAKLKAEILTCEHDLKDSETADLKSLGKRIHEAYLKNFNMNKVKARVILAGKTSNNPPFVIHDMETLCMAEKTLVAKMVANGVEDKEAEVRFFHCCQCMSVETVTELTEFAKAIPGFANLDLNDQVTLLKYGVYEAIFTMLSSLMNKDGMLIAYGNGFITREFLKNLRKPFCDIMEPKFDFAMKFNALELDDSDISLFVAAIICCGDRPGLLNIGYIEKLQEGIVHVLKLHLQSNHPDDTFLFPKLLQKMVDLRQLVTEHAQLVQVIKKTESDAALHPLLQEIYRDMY
Description: Agonist activity at Gal4-fused mouse PPAR-alpha ligand binding domain expressed in CHO-K1 cells assessed as receptor transactivation incubated for 24 to 48 hrs by luciferase reporter gene assay. It counts as cell-based.

In test [5] the target is T5, Peroxisome proliferator-activated receptor alpha (Mus musculus) (UniProt P23204).
T5 sequence (whole entry): T4 sequence (P23204 whole entry)
The experiment in a line: Agonist activity at Gal4-fused mouse PPAR-alpha ligand binding domain expressed in CHO-K1 cells assessed as receptor transactivation incubated for 24 to 48 hrs by luciferase reporter gene assay relative to control. It counts as cell-based. As to conditions: time lower 24.0 hrs, time upper […].

The species named for the next test is Mus musculus. Description: Selectivity ratio of EC50 for agonist activity at Gal4-fused mouse PPAR-alpha ligand binding domain expressed in CHO-K1 cells to EC50 for agonist activity at Gal4-fused mouse PPAR-delta ligand binding domain expressed in CHO-K1 cells. It counts as cell-based.
Test [6] addresses T6, Peroxisome proliferator-activated receptor gamma (Mus musculus, UniProt P37238).
T6 sequence (P37238 whole entry): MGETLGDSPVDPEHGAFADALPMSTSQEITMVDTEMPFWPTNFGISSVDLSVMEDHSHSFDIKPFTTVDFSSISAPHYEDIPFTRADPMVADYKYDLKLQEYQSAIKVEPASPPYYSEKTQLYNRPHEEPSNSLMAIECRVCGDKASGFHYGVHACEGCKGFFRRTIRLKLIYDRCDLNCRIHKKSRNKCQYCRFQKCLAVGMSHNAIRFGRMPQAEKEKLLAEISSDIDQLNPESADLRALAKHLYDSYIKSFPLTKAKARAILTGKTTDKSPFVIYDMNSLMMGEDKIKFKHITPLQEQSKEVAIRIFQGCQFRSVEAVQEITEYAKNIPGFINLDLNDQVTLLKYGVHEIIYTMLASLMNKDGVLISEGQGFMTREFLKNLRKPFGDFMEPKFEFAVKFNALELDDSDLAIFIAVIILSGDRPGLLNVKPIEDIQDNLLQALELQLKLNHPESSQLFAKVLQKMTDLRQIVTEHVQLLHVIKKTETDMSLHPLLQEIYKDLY
Description: Agonist activity at Gal4-fused mouse PPAR-gamma ligand binding domain expressed in CHO-K1 cells assessed as receptor transactivation incubated for 24 to 48 hrs by luciferase reporter gene assay. It counts as cell-based.

By EC50 is commonly meant the concentration that produces a half-maximal response. With `Cc1cc(CC(=O)O)cc(CN2CCN(c3nc4ccc(C(F)(F)F)cc4s3)[C@H](C)C2)c1`, the EC50 in test [1] is 0.0062 µM; in test [3], 1.2 µM; in test [4], 3.7 µM; in test [6] it was 1.8 µM. Moreover, the figures for the Emax in test [2] and in test [5] were 6.3% and 1.7%, respectively. The Ratio EC50 in the test filed under Homo sapiens stood at 258; in the test listed under Mus musculus it was 152.
With `Cc1cc(CC(=O)O)cc(CN2CCN(c3nc4ccc(C(F)(F)F)cc4s3)[C@@H](C)C2)c1`, the EC50 is 0.01 µM in test [1], 3.1 µM in test [3], 3.9 µM in test [4] and 2.7 µM in test [6]. Further, the Emax is 6.3% in test [2] and 9% in test [5]. The results for the Ratio EC50 in the test listed under Homo sapiens and in the test filed under Mus musculus were 175 and 100, respectively.
